From patent US20080090916A1, “Compounds for Treating Urinary Incontinence” (priority 2005, published 2008)

Tests used:
[1] = Solubility concentration of saturated solutions determined by HPLC; assay type: physicochemical
Procedure: The tightness of the cells and absence of air bubbles in the receptor phase was monitored and given at each sampling point.
So, from manufacturing of the solutions, the amount of the compound of formula (Ia) per solvent volume was known (documentation by balance print out). That amount was named a saturated solution. Afterwards the saturated solution was centrifuged and the solubility concentration of the clear supernatant of the solution was determined quantitatively by HPLC. The saturation factor was calculated from the ratio of saturated solution:solubility concentration. A high ratio represented a high level of infinite dose.

[2] = system: vesicourethral junction sphincter muscle strips; test: Enzyme assay: regeneration of 1R,2S-methoxamine from compound (Ia) by gamma glutamyl transferase, reaction product tested on muscle strips; assay type: cell-based, pig; settings: for response of muscle strips: 0.3 mM
Procedure: Regeneration of 1R,2S-methoxamine from the Compound of Formula (Ia)
Into a clean glass vial (1 ml volume) the following reaction mixtures were pipetted as follows:
200 μl compound of formula (Ia), 10 mg/ml in Tris buffer (mol. wt. 376, therefore=2 mg compound of formula (Ia)=5.3 μMoles), 100 μl solution E
Reaction product of groups 1, 2 and 3 were only tested for biological activity after 30 minutes of incubation period at 37° C. while that of group 4 were also tested after, 10, 30 and 60 minutes of incubation period. A 5 h group of which reaction mixture indicated in group four were diluted by two fold after 30 min incubation were also tested for biological activity.
Gamma glutamyl transferase, 2-1-18 porcine kidney was purchased from Calzyme Labs San Luis Obispo, Calif. 93401 USA, glyclglycine was obtained from Acros Organics, New Jersey, USA while L-glutamic acid 5-(4-nitroanilide) was purchased from Fluka Chemie Switzerland.
The reaction mixture was incubated in HOT BOX oven, size one incubator made by Gallenpark, England, while the absorbance was measured (@λmax 405 nm), using Anthos 2020 UV/VIS spectrophotometer.
Representative traces of pig vesicourethral junction sphincter muscle response to various enzyme reaction products are shown in FIG. 3 and representative traces of pig proximal sphincter muscle response to various enzyme reaction products are shown in FIG. 4. The enzyme reaction products tested are as follows: • FIG. 3a-50 mM Tris HCl buffer; • FIG. 3b-50 mM Tris HCl buffer, gamma glutamyl transferase. • FIG. 3c-50 mM Tris HCl buffer, MgCl2.6H2O, glycylglycine, compound of formula (Ia); • FIG. 4a-50 mM Tris HCl buffer, MgCl2.6H2O, glycylglycine, gamma glutamyl transferase, compound of formula (Ia); • FIG. 4b-0.3 mM 1R,2S-methoxamine.

Female land race pigs = test: In vivo pig urodynamic model (urodynamic and cardiovascular parameters)
Procedure: The animal model employed in this study was a slight modification of the previously described pig in vivo urodynamic model by Mills (1999). Surgical procedures were performed by Home Office personal licence holders. Female land race pigs of about 60 kg in weight were used for this study.
Pigs were initially sedated with ketamine hydrochloride 15 mg/kg (ketaset, Willows Francis Veterinary, Crawley, UK) and midazolam 0.2 mg/kg (Hypnovel, Roche Products Ltd, Welwyn Garden City, UK) through an intravenous central line. […] The induction phase of general anaesthesia was accomplished with 5% halothane (Fluothane, Astra ZenecaLtd, Macclesfield UK) in nitrous oxide 50%/oxygen 50%, delivered from an anaesthetic machine through a conical mask which was held over the snout of the pig. Following the induction phase, the maintenance phase of general anaesthesia was achieved using intravenous 1% propofol at the rate of 200 mg/hr.
At the start of surgery, the pig was initially placed in the left lateral position allowing access to the lumbar dorsal region. A stab incision for each catheter was made in the lumbar dorsal midline, as well as a single small right iliac fossa incision. Using a specially designed trocar, the peritoneal catheter and the proximal portions of the vesical catheters were tunneled from the dorsal lumbar incision to the right iliac fossa, such that the cuff at the proximal end finished in a small subcutaneous pocket. Each incision was approximated with two interrupted 2/0 nylon sutures, taking care to avoid occlusion of the catheters. The pig was then turned into a supine position and a lower abdominal incision made. Using a Spencer-Well forceps, the peritoneum and abdominal wall muscles were pierced from inside out and three catheters grabbed and pulled into the peritoneal cavity. The longer peritoneal catheter was placed in the vesico-vaginal pouch. Two purse-string sutures of 2/0 silk were placed in the apex of the bladder, and stab incisions made through the centre of each of these. The distal shorter halves of the vesical lines were introduced into the bladder through these incisions and the purse-strings tied, ensuring that the lumen of each catheter remained patent. Each side of the small pieces of silastic sheet on these catheters was sutured to the serosa of the bladder, in order to provide further security against subsequent line displacement. These distal portions of the two vesical catheters were then connected to the proximal portions using the nylon connectors. The abdominal wound was closed en masse with 1 nylon, followed by 2/0 chromic catgut to fat and interrupted 2/0 nylon to the skin. The right iliac fossa wound was closed in layers with vicryl to internal oblique and external oblique and interrupted 2/0 nylon to the skin. One of the vesical lines was attached to another piece of tubing externally and left on free drainage for 48 hours to allow the bladder to heal.
Following induction of anaesthesia, the animal was placed in a supine position and covered with a warm water blanket to maintain body temperature. A small incision was then made in the left groin area through which the left femoral artery was identified by palpation. The artery was then cannulated with an arterial […] cannulae (Abbocath-T, Abbott Ireland, and Sligo, Ireland) which was then connected to a pressure transducer for the measurement of arterial pressure. Vesico-urethral junction cystometry was obtained using a catheter mounted with a microtranducer (Gaeltec LTD, Isle of Skye). To cannulate the urethra, the vagina was opened with a speculum to expose the external urethral orifice which is high up in the anterior wall of the vagina. Having identified the external orifice the catheter was then inserted into the urethra by direct vision, thereafter it was gradually withdrawn until it was positioned in the vesico-urethral junction. […]

[3] = 1 mg/kg iv bolus, mean of three voiding cycles

- saturation concentration in the acceptor medium ([1]; 0.9% NaCl 80%, PEG 400 20%, 0.1% NaN3): 130 mg/mL
- solubility in Ethanol ([1]; Ethanol): high solubility
- water solubility ([1]; water): high
- solubility in both media ([1]; water and DMSO): high solubility
SMILES: COc1ccc(OC)c([C@@H](O)[C@H](C)NC(=O)CC[C@H](N)C(=O)O)c1 [compound of formula (Ia), (S)-2-Amino-4-[(1S,2R)-2-(2,5-dimethoxyphenyl)-2-hydroxy-1-methyl-ethylcarbamoyl]butyric acid]
- response of muscle strips ([2]; prepared in saline): 1.15 g
- response of muscle strips ([2]; prepared in tris buffer): 1.22 g
- reduction of bladder activity of the reaction mixture ([2]; 2-fold dilution post 30 min incubation with the enzyme): 38%
- contractile response ([2]; Mg^2+-glycylglycine-compound-enzyme mixture, 30 min incubation): 1.62 g
- contractile response of pig bladder neck muscle ([2]; administered with gamma glutamyl transferase and glycylglycine, FIG. 4a): pronounced well defined contractile response
- contractile response ([2]; buffer-Mg^2+-glycylglycine-compound, no enzyme, 30 min incubation): 0.12 g
- contractile response ([2]; reaction mixture with enzyme, 10 min incubation): 1.52 g
- contractile response ([2]; reaction mixture with enzyme, 60 min incubation): 1.10 g
- VUJ threshold pressure, greater than control runs (Female land race pigs; 1 mg/kg iv): about 31%
- duration of voiding, change from control (Female land race pigs; 1 mg/kg iv): 4.1%
- fall in deutrusor voiding pressure from the control runs (Female land race pigs; 1 mg/kg iv): 36.5%
- flow rate, change from control (Female land race pigs; 1 mg/kg iv): 2.4%
- voiding intervals, change from control (Female land race pigs; 1 mg/kg iv): −4.7%
- deutrusor voiding pressure (Female land race pigs; [3]): 28±10.11 cmH2O
- intravesical threshold voiding pressure (Female land race pigs; [3]): 16.23±1.16 cmH2O
- voiding pressure during the voiding phase (Female land race pigs; [3]): 41.1±8.3 cmH2O
- bladder intravesical baseline pressure (Female land race pigs; 1 mg/kg iv bolus, mean of three voiding cycles, one animal): 8.53±0.34 cmH2O
- reduction in residual volume (Female land race pigs; 1 mg/kg iv, versus control): 31%
- rise in the threshold VUJ voiding pressure (Female land race pigs; 1 mg/kg iv, versus control): 15%
- VUJ baseline pressure (Female land race pigs; 1 mg/kg iv, versus control runs): transient rise
- arterial pressure, change from the control (Female land race pigs; 1 mg/kg iv, arterial line flushed after dosing): 15%
- voiding efficiency (Female land race pigs; 1 mg/kg iv, voided volume as percentage of bladder capacity): 95%
